{"source": "paper PMC3909264", "about": "“A Novel Acylaminoimidazole Derivative, WN1316, Alleviates Disease Progression via Suppression of Glial Inflammation in ALS Mouse Model” (PLoS ONE, 2014)", "key": {"[1]": {"assay": "Pharmacokinetics of WN-compounds in mice (brain and serum concentration, HPLC)", "type": "in vivo, mouse (C57BL/6N)", "details": "for Cmax: C57BL/6N mouse, oral 50 mg/kg body weight", "method": "Wild type mice at 8 weeks (male, C57BL/6N) were used for the analysis of CPN-9, WN1303R, WN1312, WN1315 and WN1316 pharmacokinetics. CPN-9 was suspended in 0.5% carboxymethyl cellulose (CMC)-Na (carmellose sodium, Maruishi Pharmaceutical Co., Ltd.), while WN1303R, WN1312 and WN1316 were dissolved in Milli-Q purified water (MQ water) and WN1315 was dissolved in 0.25 N HCl. CPN-9 (100 mg/kg body weight) and the four WN-compounds (50 mg/kg body weight) were injected intragastrically (i.g.). After 15 min, 30 min, 1 h, 2 h, 4 h, 6 h, and 8 h, blood was collected from heart of each mouse anesthetized with 2% isoflurane by inhalation or 4% halothane in a mixture of N2O/O2 (70∶30). Mice were thereafter perfused transcardially with physiological saline containing 10% heparin under anesthesia, and the whole brain was removed. Each blood sample was centrifuged at 1,000×g for 10 min at 4°C, and the serum fraction was collected. The brain was frozen in liquid nitrogen, and was cryopreserved until use.\nWe mixed serum with deproteinization buffer (0.05 M H2SO4, 2.5 M K2CO3, and […]), and collected the organic layer after centrifugation at 1,500×g for 10 min. The organic layer was mixed with 0.05 M H2SO4, and then, after centrifugation at 1,500×g for 10 min, the water layer was collected. After the addition of methanol, each serum derived sample was subjected to HPLC.\nMouse whole brain was homogenized with acetonitrile and left at −80°C for 10 min. The supernatant was collected after centrifugation at 10,000×g for 10 min at 4°C and was dried under vacuum. The dried sample was re-dissolved in methanol and mixed with two volumes of 10 mM phosphate buffer (pH7.0), after which the supernatant was collected by centrifugation at 10,000×g for 10 min at 4°C and then left at −80°C for 10 min. To further remove debris, the supernatant was filtered (0.45 µm filter), centrifuged (at 10,000×g for 10 min at 4°C), filtered (0.22 µm filter) and finally centrifuged again. Each sample solution from brain was subjected to HPLC.\nThe concentrations of CPN-9 and WN1316 in the serum and brain samples were determined by HPLC on a CAPCELL PAK C18 column (SHISEIDO) with 50% acetonitrile (CPN-9), 40% acetonitrile (WN1316) or 45% acetonitrile (WN1303R, WN1312, and WN1315) in 10 mM phosphate buffer (pH 7.0)."}, "[2]": {"system": "Nrf2 signaling pathway in SH-SY5Y cells", "assay": "Nrf2-regulated gene expression (RT-PCR, Western blot)", "type": "cell-based, human", "details": "10 µM, within 3 h", "method": "Total RNA was extracted from cells using the TRIzol reagent (Invitrogen). Isolated total RNA was purified using the SV Total RNA Isolation System (Promega) according to the manufacturer’s instruction. RT-PCR was performed with QIAGEN onestep RT-PCR kit (QIAGEN). The housekeeping peptidylprolyl isomerase A (PPIA) gene was used as an internal control. PCR primers specific to each gene are as follows: ATF3, 5′-[…]-3′, and 5′-[…]-3′ (268 bp); GCLM, 5′-[…]-3′, and 5′-[…]-3′ (367 bp); HO-1, 5′-[…]-3′, and 5′-[…]-3′ (348 bp); NQO1, 5′-[…]-3′, and 5′-[…]-3′ (298 bp); Nrf2, 5′-[…]-3′, and 5′-[…]-3′ (263 bp); p21/CDKN1A, 5′-[…]-3′, and 5′-[…]-3′ (201 bp); p62/SQSTM1, 5′-[…]-3′, and 5′-[…]-3′ (330 bp); PPIA, 5′-[…]-3′, and 5′-[…]-3′ (184 bp). Amplified products were electrophoretically resolved by a 2.0% agarose gel, stained with ethidium bromide, and photographed under ultraviolet light.\nSH-SY5Y cells (3×10^5 cells) were washed twice with ice-cold PBS and incubated in 1 ml of ice-cold 10% trichloroacetic acid for 30 min. Cells were centrifuged at 22,000×g for 15 min at 4°C and lysed by pipetting in 80 µl of 9 M urea containing 2% Triton X-100 and 1% dithiothreitol. After the addition of 20 µl of 10% lithium dodecyl sulfate and 2 µl of 2 M Tris base, cell lysates were sonicated until their viscosity disappeared. […]"}, "NAIP in THP-1 cells": {"system": "NAIP in THP-1 cells", "assay": "Western blot of NAIP in THP-1 cells", "type": "cell-based, human", "details": "1 to 16 µM, 24 h", "method": "Human monocytic leukemia cell line THP-1 (ATCC, TIB-202) was cultured in RPMI-1640 (Wako) supplemented with 10% fetal bovine serum, 100 U/ml penicillin, and 100 µg/ml streptomycin at 37°C in 5% CO2. Approximately 1×10^5 cells, which were pretreated with 1 to 16 µM WN1316 or DMSO in the presence or absence of 1 mM NAC for 24 h, were plated on a 96-well plate and exposed to 80 µM menadione for 16 h. Cell viability was measured by AlamarBlue assay. For Western blotting, cell lysates were prepared by using M-PER mammalian protein extraction reagent (Thermo scientific) according to standard procedure."}, "[3]": {"system": "total GSH in differentiated SH-SY5Y cells", "assay": "Measurement of intracellular glutathione (GSH/GSSG-Glo)", "type": "cell-based, human", "details": "1–20 µM, 8 h", "method": "Differentiated SH-SY5Y cells were treated with various concentrations of WN1316 (1–20 µM) or vehicle control (DMSO). After 8 h incubation, the cellular oxidized (GSSG) and reduced glutathione (GSH) levels were measured using the GSH/GSSG-Glo™ Assay kit (Promega) according to the manufacturer’s instructions. GSH and GSSG levels were normalized to protein concentrations."}, "[4]": {"assay": "Complexing with protein in rat serum", "type": "in vitro ADME", "details": "rat sera, unpublished data"}, "[5]": {"assay": "Complexing with protein in human serum", "type": "in vitro ADME", "details": "human sera, unpublished data"}}, "note": "Structures can show the parent of a compound that is named as a salt. Where two headings read alike, the source gives them in different places.", "data": [{"smiles": "Cc1cc(C)c(N(C)CC(=O)Nc2nc(-c3ccccn3)c[nH]2)c(C)c1", "note": "[WN1316, 2-[mesityl(methyl)amino]-N-[4-(pyridin-2-yl)-1H-imidazol-2-yl] acetamide trihydrochloride]", "values": [{"measurement": "AUC0–8: Brain", "setting": "[1]; C57BL/6N mice, intragastric, 50 mg/kg, n = 4, mean ± SD", "value": "38.9±5.7", "unit": "µg⋅h/g"}, {"measurement": "brain AUC0–8 relative to the level observed with CPN-9", "setting": "[1]; WN1316 50 mg/kg vs CPN-9 100 mg/kg", "value": "about 39 fold"}, {"measurement": "Cmax", "setting": "[1]; male, brain, read-out: Cmax in brain", "value": 42.1, "unit": "µM"}, {"measurement": "Kp", "setting": "[1]; male, mouse, brain / serum, oral 50 mg/kg, C57BL/6N, read-out: brain AUC0–8 relative to serum levels", "value": "~4"}, {"measurement": "AUC(0-t)", "setting": "[1]; male, mouse, serum, po, C57BL/6N mice, intragastric, 50 mg/kg, n = 4, mean ± SD, read-out: AUC0–8: Serum", "value": "13600 ± 700", "unit": "ng·h/mL"}, {"measurement": "Cmax", "setting": "[1]; male, serum, read-out: Cmax in blood", "value": 9.78, "unit": "µM"}, {"measurement": "BBB permeability (in words)", "setting": "[1]; mouse, in vivo", "value": "prominent BBB permeability"}, {"measurement": "clearance in both brain and serum", "setting": "[1]; oral 50 mg/kg, C57BL/6N", "value": 8, "unit": "h"}, {"measurement": "mRNA of Nrf2-regulated genes (Nrf2, ATF3, HO-1, GCLM, NQO1, p21, p62)", "setting": "[2]", "value": "increased"}, {"measurement": "NAIP protein level", "setting": "NAIP in THP-1 cells", "value": "dose-dependent upregulation"}, {"measurement": "total GSH level", "setting": "[3]", "value": "upregulation of total GSH level"}, {"measurement": "protein complexing in serum", "setting": "[4]", "value": "complexes with protein"}, {"measurement": "protein complexing in serum", "setting": "[5]", "value": "complexes with protein"}]}]}
